Reference: patent US20070248540A1, “Biochemical methods for measuring metabolic fitness of tissues or whole organisms” (The Regents of the University of California, priority 2002, published 2007)
“And” between values parts separate entries of the source, which are not always exact repeats. Equal values may be shown once. Read-outs that look alike come from different tables or passages of the source.

Legend:
[1] = Body ^2H2O enrichment (saliva samples) in subjects ingesting 70% ^2H2O over eight weeks; format: in vivo; settings: individual human subjects; oral 70% ^2H2O, eight-week study; one value per subject (251498, 251515, 251598, 251748, 251771)
Protocol: The protocol for incorporation of ^2H into human mitochondrial DNA from muscle biopsy samples is illustrated in the experimental design of FIG. 3d. Five human subjects enrolled as out-patients ingested 70 ml of 70% ^2H2O three times a day for 5 days then twice a day for 5 days; then ingested 50 ml twice a day thereafter for the remainder of the eight-week study period. Every two weeks, subjects gave a saliva sample (for measurement of body ^2H2O enrichment). At week 8, an open muscle biopsy was performed under surgical conditions. Mitochondria were isolated from excised muscle tissue (1 g) by ultracentrifugation, using methods well known in the art. Isolation of mitochondrial (mt) DNA and phospholipids (PL) were by procedures well known in the art. Measurement of fractional synthesis of mt PL was as described in the general methods, supra and in Collins et al., supra. Measured ^2H-incorporation (EM1=excess abundance of M+1 mass isotopomer of the molecule) and fractional synthesis (f) of mt DNA and mt PL are shown in Table 1.

[2] = Toxicity on long-term maintenance of ^2H2O body water enrichment in humans; format: in vivo, human; settings: body water enrichment 1-10% (0.5%-15%) maintained for weeks or months; >100 people
From the text: (§1) Relatively high body water enrichments of ^2H2O (e.g., 1-10% of the total body water is labeled) may be achieved using the techniques of the invention. Water enrichments of ^2H2O of 0.5%-15% may also be achieved using the techniques described herein. […] This finding in a large number of human subjects (>100 people) is contrary to previous concerns about vestibular toxicities at high doses of ^2H2O. Applicant has discovered that as long as rapid changes in body water enrichment are minimized (e.g., by initial administration in small, divided doses), high body water enrichments of ^2H2O can be maintained with a minimum toxicities. For example, the low expense of commercially available ^2H2O allows long-term maintenance of enrichments in the 1-5% range at relatively low expense (e.g., calculations reveal a lower cost for 2 months labeling at 2% ^2H2O enrichment, and thus 7-8% enrichment in the alanine precursor pool, than for 12 hours labeling of ^2H-leucine at 10% free leucine enrichment, and thus 7-8% enrichment in leucine precursor pool for that period).

[3] = in vivo
From the text: as §1

[2H]O[2H] [^2H2O, deuterated water]
Body ^2H2O (%) [1]: 0.5% and 1.7% and 1.1% and 2.0% and 1.0%
evidence of toxicity [2]: without any evidence of toxicity
evidence of toxicity [3]: without any evidence of toxicity
